Columns and labels:
[1] = Serum cortisol in rats; type: in vivo, rat; settings: 10 mg/kg, 21 days of chronic dosing
Description: These higher levels were in the range of 3-4 ug/dl (30-40 ng/ml).

[2] = Urinary estrogen levels (follicular phase) in cynomolgus monkeys; type: in vivo, Cynomolgus monkeys (Macaca fascicularis); design: Urinary estrogen, follicular phase, Mean: unit not given here; settings: for Urinary estrogen, follicular phase, Mean: CDB-4124 or RU-486 oral 1.0 mg/kg/day, Lupron IM once per month
Description: (§1) Cynomolgus monkeys (Macaca fascicularis) (n=14) were treated orally for 36 weeks with CDB-4124 or RU-486 at 1.0 mg/kg/day or with placebo (control). Another group (n=14) received Lupron® IM once per month. Urinary progesterone levels were measured for each animal for one month during the middle of the study (weeks 14-17) and for the last month of the study (weeks 33-36). The results are presented below:
Urinary estrogen levels were measured for each animal of Example 6 for one month during the middle of the study (weeks 14-17) and for the last month of the study (weeks 33-36). The follicular phase results are based on 35 baseline ovulating cycles.

[3] = tested on: Cynomolgus monkey endometrial epithelia, uterus stroma and breast; assay: BrdU incorporation, tissue proliferation in cynomolgus monkeys; type: in vivo, Cynomolgus monkeys (Macaca fascicularis); settings: week 36, % cells positive for incorporation of BrdU, three animals per group
Description: At week 36, three animals from each group of Example 6 were injected within 24 hours of sacrifice with the thymidine analog bromodeoxyuridine (BrdU), a marker of proliferating cells and their progeny, to assess tissue proliferation. Full thickness uterine sections were stained and examined microscopically for evidence of proliferation in terms of the % cells positive for incorporation of BrdU: […]

[4] = Serum corticosterone in rats; settings: for differences in serum corticosterone between groups: CDB-4124 10 or 20 mg/kg, RU 486 10 mg/kg, progesterone 10 mg/kg
[5] = tested on: Cynomolgus monkey endometrial epithelium, uterus stroma and breast; assay: TUNEL apoptosis in cynomolgus monkey tissue; type: in vivo, Cynomolgus monkeys (Macaca fascicularis); settings: week 36, percent apoptotic cells
Description: Apoptosis was assessed in tissue from the same animals on slides by the terminal deoxynucleotidyl transferase mediated dUTP-biotin nick end labeling (TUNEL) technique.

[6] = molecular target: T1, glucocorticoid receptor (rbGR) (Oryctolagus cuniculus, UniProt P59667); assay: Glucocorticoid receptor binding / anti-glucocorticoid receptor activity; design: species or system rabbit
T1 construct: cytosol containing PR or GR were prepared in TEGMD buffer; from tissue; host or cells: thymus of estradiol-primed immature rabbits (cytosol)
T1 sequence (P59667 1-772): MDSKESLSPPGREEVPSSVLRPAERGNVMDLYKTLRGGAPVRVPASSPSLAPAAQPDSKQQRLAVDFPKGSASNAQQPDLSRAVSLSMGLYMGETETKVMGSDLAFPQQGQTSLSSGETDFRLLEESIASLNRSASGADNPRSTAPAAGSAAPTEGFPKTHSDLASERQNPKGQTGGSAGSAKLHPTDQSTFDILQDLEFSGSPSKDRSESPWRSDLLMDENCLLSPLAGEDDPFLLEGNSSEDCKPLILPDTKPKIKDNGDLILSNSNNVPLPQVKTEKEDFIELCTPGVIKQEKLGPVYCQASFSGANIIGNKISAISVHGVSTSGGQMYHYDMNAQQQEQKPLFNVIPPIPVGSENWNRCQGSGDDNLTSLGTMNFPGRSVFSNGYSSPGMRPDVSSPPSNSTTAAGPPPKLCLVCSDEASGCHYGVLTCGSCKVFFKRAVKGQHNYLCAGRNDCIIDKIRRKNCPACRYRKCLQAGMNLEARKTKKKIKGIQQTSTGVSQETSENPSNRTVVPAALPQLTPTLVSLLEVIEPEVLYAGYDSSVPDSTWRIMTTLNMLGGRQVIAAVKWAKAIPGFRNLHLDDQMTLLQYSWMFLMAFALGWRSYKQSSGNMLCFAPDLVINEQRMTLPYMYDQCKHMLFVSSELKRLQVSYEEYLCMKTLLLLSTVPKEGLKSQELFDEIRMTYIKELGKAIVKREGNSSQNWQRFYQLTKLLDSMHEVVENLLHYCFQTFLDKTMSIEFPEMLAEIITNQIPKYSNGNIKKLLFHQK
Description: Certain antiprogestins were tested in receptor-binding assays for their ability to bind rabbit progesterone receptor (rbPR) and glucocorticoid receptor (rbGR). […] For PR binding, the cytosol was incubated with 6 nM 1,2-[^3H]progesterone (50.0 Ci/mmole) and competitors were added at concentrations from 2 to 100 nM. For binding to GR, the cytosol was incubated with 6 nM 6,7-[^3H]-dexamethasone (40 Ci/mmol) and test compounds were added at concentrations from 20 to 100 nM. After overnight incubation at 4 C, bound and unbound [^3H] steroids were separated by addition of dextran-coated charcoal and centrifugation at 2100×g for 15 min at 4 C. Supernatants containing the [3H]-steroid receptor complexes were decanted into vials containing 4 ml Optifluor (Packard Instrument Co.), vortexed, equilibrated in a liquid scintillation counter for 30 minutes and then counted for 2 minutes. […] The standards for the PR and GR assays were unlabeled progesterone and dexamethasone, respectively.

[7] = Urinary progesterone levels (luteal phase) in cynomolgus monkeys; type: in vivo, Cynomolgus monkeys (Macaca fascicularis); settings: n=14 per group; CDB-4124 or RU-486 oral 1.0 mg/kg/day for 36 weeks; Lupron IM once per month
Description: as §1, with “33-36).” for “33-36). The results are presented below:”

[8] = tested on: progesterone-induced endometrial glandular proliferation in rabbit uterus; assay: anti-McGinty and anti-Clauberg assays in the rabbit uterus; type: in vivo; settings: for rabbit Biol. Act.: average of anti-McGinty and anti-Clauberg results relative to CDB-2914 (=1.00)
From the text: Also given in Table 1 are the relative biological activities of the same compounds in the rabbit uterus by the anti-McGinty and anti-Clauberg assays. Compound CDB-2914 (listed at the end of the Table) was used as the control or reference compound (rabbit Biological Activity=1.00) for these experiments because results of experiments using CDB-2914 have been published before (Hild-Petito et al., 1996; Passaro et al., 1997; Reel et al., 1998; Lamer et al., 2000). For the anti-McGinty test, immature female rabbits received a subcutaneous injection of 5 μg estradiol in 10% ethanol/sesame oil daily for 6 consecutive days. On day 7, animals underwent sterile abdominal surgery to ligate a 3-4 cm segment of both uterine horns. The test compound in appropriate solvent was injected intraluminally into the ligated segment of one uterine horn and vehicle alone into the other. A stimulating dose of progesterone (267 μg/day) was administered subcutaneously to each rabbit daily for the next three days to induce endometrial proliferation. All animals were sacrificed at day 10 for removal of the uterus where a segment central to the ligatures was removed and fixed in 10% neutral buffered formalin and submitted for histological processing. Five micron sections stained with hematoxylin and cosin were evaluated microscopically for the degree of endometrial glandular proliferation. The percent inhibition of endometrial proliferation for each rabbit was calculated and the mean of the group of five animals recorded. For the Anti-Clauberg test, immature female rabbits received a subcutaneous injection of 5 μg estradiol in 10% ethanol/sesame oil daily for 6 consecutive days. On day 7, animals received progesterone by subcutaneous injection (160 μg/day) and the experimental compound in appropriate vehicle orally or subcutaneously for five consecutive days. One group of rabbits received progesterone only. Twenty-four hours after the last dose, all animals were sacrificed for removal of the uterus which was cleaned of all fat and connective tissue, weighed to the nearest 0.2 mg and placed in 10% neutral buffered formalin for subsequent histological processing. Five micron sections stained with hematoxylin and eosin were evaluated microscopically for the degree of endometrial glandular proliferation. The percent inhibition of endometrial proliferation at each dose level of the test compound was derived by comparison with progesterone-stimulated animals alone. The data presented in Table 1 (rabbit Biol. Act.) reflects the average of the results obtained for each compound by the anti-McGinty and anti-Clauberg assays relative to CDB-2914.

[9] = tested on: rabbit progesterone receptor (rbPR) and glucocorticoid receptor (rbGR); assay: Receptor-binding assays, ratio of relative binding affinities rbPR/rbGR; settings: ratio of relative binding affinities (RBA = EC50 of standard/EC50 of test compound x 100) for rbPR and rbGR
Description: Certain antiprogestins were tested in receptor-binding assays for their ability to bind rabbit progesterone receptor (rbPR) and glucocorticoid receptor (rbGR). Briefly, cytosol containing PR or GR were prepared in TEGMD buffer (10 mM Tris, pH 7.2, 1.5 mM EDTA, 0.2 mM sodium molybdate, 10% glycerol, 1 mM DTT) from uterus or thymus, respectively, of estradiol-primed immature rabbits. For PR binding, the cytosol was incubated with 6 nM 1,2-[^3H]progesterone (50.0 Ci/mmole) and competitors were added at concentrations from 2 to 100 nM. For binding to GR, the cytosol was incubated with 6 nM 6,7-[^3H]-dexamethasone (40 Ci/mmol) and test compounds were added at concentrations from 20 to 100 nM. After overnight incubation at 4 C, bound and unbound [^3H] steroids were separated by addition of dextran-coated charcoal and centrifugation at 2100×g for 15 min at 4 C. Supernatants containing the [3H]-steroid receptor complexes were decanted into vials containing 4 ml Optifluor (Packard Instrument Co.), vortexed, equilibrated in a liquid scintillation counter for 30 minutes and then counted for 2 minutes. The EC50 (Effective Concentration) for each standard curve and each of the compound curves was determined by entering the counting data into a four parameter sigmoidal computer program (RiaSmart® Immunoassay Data Reduction Program, Packard Instrument Co., Meriden, Conn.). Relative binding affinity (RBA) for each compound was calculated using the following equation: EC50 of standard/EC50 of test compound×100. The standards for the PR and GR assays were unlabeled progesterone and dexamethasone, respectively. The results of these experiments are summarized in Table 1, as a ratio of the relative binding affinities of each compound for the rbPR and rbGR receptors (rbPR/rbGR).

[10] = Estrogenic, androgenic, anti-estrogenic and anti-androgenic activities

## CC#C[C@]1(O)CC[C@H]2[C@@H]3CCC4=CC(=O)CCC4=C3[C@@H](c3ccc(N(C)C)cc3)C[C@@]21C [RU 486, 11β-[p-(Dimethylamino)phenyl]-17β-hydroxy-17-(1-propynyl)estra-4,9-dien-3-one]
[1]
  levels of serum cortisol versus control group: no significant difference
[2]; Week 18
  Follicular phase estrogen Lower?: No
  Urinary estrogen, follicular phase, Mean: 67.4
[2]; Week 36
  Follicular phase estrogen Lower?: No
  Urinary estrogen, follicular phase, Mean: 64.8
[3]
  Breast Brdu-%: 0.9 ± 0.3%
  Uterus epithelium Brdu-%: 12.6 ± 1.8%
  Uterus stroma Brdu-%: 3.1 ± 1.0%
[4]
  differences in serum corticosterone between groups: No differences
[5]
  Breast Apo %: 1.2 ± 0.6%
  Uterus epithelium Apo %: 0.5 ± 0.1%
  Uterus stroma Apo %: 0.5 ± 0.1%
[6]
  anti-glucocorticoid receptor activity / glucocorticoid receptor binding: moderately active
[7]
  Decrease in luteal phase progesterone (number of animals): 9
  No decrease in luteal phase progesterone (number of animals): 5

## CC(=O)O[C@]1(C(C)=O)CC[C@H]2[C@@H]3CCC4=CC(=O)CCC4=C3[C@@H](c3ccc(N(C)C)cc3)C[C@@]21C [CDB-2914, 17α-acetoxy-11β-(4-N,N-dimethylaminophenyl)-19-norpregna-4,9-dien-3,20-dione, reference compound]
[8]
  rabbit Biol. Act.: 1.00
[9]
  rbPR/rbGR: 1.07
[6]
  anti-glucocorticoid receptor activity / glucocorticoid receptor binding: moderately active

## CC(=O)OCC(=O)[C@@]1(OC(C)=O)CCC2C3CCC4=CC(=O)CCC4=C3C(c3ccc(N(C)C)cc3)C[C@@]21C (stereo partly drawn) [CDB-4059, 21-acetoxy-17α-acetoxy-11β-(4 N,N-dimethylaminophenyl)-19-norpregna-4,9-diene-3,20-dione]
[1]
  levels of serum cortisol versus control group: significantly higher
[8]
  rabbit Biol. Act.: 2.90
[8]; in comparison to RU 486 and CDB-2914
  antiprogestin activity in the rabbit uterus: strong antiprogestin activity
[9]
  rbPR/rbGR: 1.89
[6]
  anti-glucocorticoid receptor activity / glucocorticoid receptor binding: minimal anti-glucocorticoid receptor activity
[10]
  estrogenic, androgenic, anti-estrogenic, and anti-androgenic activities: lack estrogenic, androgenic, anti-estrogenic, and anti-androgenic activities

## CC(=O)[C@H]1CC[C@H]2[C@@H]3CCC4=CC(=O)CC[C@]4(C)[C@H]3CC[C@]12C [progesterone]
[4]
  differences in serum corticosterone between groups: No differences
[4]; after 21 days of treatment, p=0.029, not verified at sacrifice
  levels of corticosterone in animals treated with exogenous progesterone: lowered

Source: patent US20090118253A1, “COMPOSITIONS AND METHODS FOR TREATING DYSFUNCTIONAL UTERINE BLEEDING” (REPROS THERAPEUTICS INC., priority 2007, published 2009)
